Results on ten compounds are retold here after patent publication US20210154359A1, “FIBRILLAR-PROTEIN BASED COMPOSITIONS AND USES THEREOF” (Hi-Aspect Limited, priority 2017, published 2021).

For orientation: IC50 means the midpoint of a concentration-inhibition curve.

The nature of series [1]: Loading capacity of protein composition C with hydrophilic and hydrophobic agents. The format is physicochemical. To be noted: in protein composition C, room temperature.
In a further series the test system is 3T3. The experiment in a line: In Vitro 3T3 NRU Phototoxicity Test (OECD 432). It counts as cell-based. Conditions: for IC50: Mus musculus, NIH3T3, light or radiation study.
The conditions of series [2]: agent in water, in words; cited from earlier work.
The mark [3] stands for this setting: loading trial to date, not maximum loading.
The mark [4] stands for this setting: read-out: Cell Viability IC50 Minus UVA.
Where [5] appears, read: read-out: Cell Viability IC50 Plus UVA.

≈ marks a conversion by molar mass, not a printed value. Like-named read-outs stand apart in the source and are kept apart here.

Regarding `O=C1O[C@H]([C@@H](O)CO)C(O)=C1O` [Ascorbic acid], in series [1] (maximum loading), the Loading was determined as 350 mg/g.

In series [1] (setting [3]), `O=C(O)c1ccccc1` [Benzoic acid] showed a Loading of 10 mg/g.

For `Cn1c(=O)c2c(ncn2C)n(C)c1=O` [Caffeine], the Loading in series [1] (maximum loading) stood at 350 mg/g.

As to `CN(C)CCCN1c2ccccc2Sc2ccc(Cl)cc21` [Chlorpromazine], in the series on 3T3, the “Comment (phototoxicity)” value is “Phototoxic”, the “Mean MPE” value is given as 0.510 and the “Mean PIF” value stood at 70. For the same compound, the IC50 in the series on 3T3 (setting [4]) is 7 µg/mL (≈ 22 µM). Further, the IC50 in the series with 3T3 (setting [5]) is 0.1 µg/mL.

As to `N[C@@H](Cc1c[nH]cn1)C(=O)O` [Histidine], in the series with 3T3, the “Mean MPE” value is −0.016 and the “Mean PIF” value worked out at 1.0. In addition, the IC50 in the series with 3T3 (setting [4]) was over 1000 µg/mL. In the series on 3T3 (setting [5]), the half-maximal inhibitory concentration (IC50) was over 1000 µg/mL.

`CN(C)c1ccc2nc3ccc(=[N+](C)C)cc-3sc2c1` [Methylene blue] displayed a Loading in series [1] (setting [3]) of 10 mg/g.

`C=C[C@H]1C[N@@]2CC[C@H]1C[C@H]2[C@H](O)c1ccnc2ccc(OC)cc12` [Quinine sulphate]: the Loading in series [1] (setting [3]) came to 10 mg/g.

Take `CC1=C(/C=C/C(C)=C/C=C/C(C)=C/C=O)C(C)(C)CCC1` [Retinal]: the Loading in series [1] (setting [3]) was 1 mg/g. Besides, the “Solubility (water)” value in series [2] is “Nearly insoluble”.

As to `CCCCCCCCCCCCCCCC(=O)OC/C=C(C)/C=C/C=C(C)/C=C/C1=C(C)CCCC1(C)C` [Retinyl palmitate], in series [1] (setting [3]), the Loading turned out to be 25 mg/g. Moreover, in series [2], the “Solubility (water)” value is “Insoluble”.

Consider `N[C@@H](Cc1c[nH]c2ccccc12)C(=O)O` [Tryptophan], for which the Loading in series [1] (maximum loading) worked out at 350 mg/g.
